Measured values published in the NIST ThermoML archive (doi:10.1021/je800446c).
Numbers after ± are expanded uncertainties. One block for each compound: values may come before it.

Details: 298.15 K; 101.33 kPa; Liquid; Pycnometric method

Structure (SMILES): CCCCO [butan-1-ol]
- mass density: 805.85 ± 0.72 kg/m3

Structure (SMILES): CCC(C)O (stereo unspecified) [butan-2-ol]
- mass density: 802 ± 1 kg/m3

Structure (SMILES): CCO [ethanol]
- mass density: 785.35 ± 0.71 kg/m3

Structure (SMILES): CO [methanol]
- mass density: 786.57 ± 0.71 kg/m3

The remaining lines, values ahead:

- mass density: 799.98 ± 0.72 kg/m3
Structure (SMILES): CCCO [propan-1-ol]

- mass density: 781.35 ± 0.7 kg/m3
Structure (SMILES): CC(C)O [propan-2-ol]
